From the NIST ThermoML archive (doi:10.1021/je0603022)

Tests used:
[1] = refractive index (Na D-line) (dimensionless); xn = mol fraction of the nth substance listed; details: 293.15 K, 101.3 kPa, Liquid, Standard Abbe refractometry
[2] = Liquid, Ebulliometric method (Recirculating still)
[3] = refractive index (Na D-line) (dimensionless); details: 101.33 kPa, Liquid, Standard Abbe refractometry

C=CCCCC [hex-1-ene] + c1ccsc1
Details | refractive index
[1], x2 = 0 | 1.3881

c1ccsc1 [thiophene] + C=CCCCC
[1]
Details | refractive index
x1 = 0.024 | 1.3903
x1 = 0.051 | 1.3926
x1 = 0.076 | 1.3949
x1 = 0.094 | 1.3966
x1 = 0.185 | 1.4055
x1 = 0.288 | 1.4163
x1 = 0.378 | 1.4266
x1 = 0.486 | 1.4402
x1 = 0.579 | 1.453
x1 = 0.683 | 1.4688
x1 = 0.788 | 1.4866
x1 = 0.89 | 1.5058
x1 = 0.91 | 1.5097
x1 = 0.948 | 1.5174
x1 = 0.974 | 1.523
x1 = 1 | 1.5287

CCCCCC [hexane]
Details | refractive index | vapor or sublimation pressure [kPa]
[2], 307.31 K | – | 29.67
[2], 311.36 K | – | 34.86
[2], 314.93 K | – | 40.02
[2], 316.81 K | – | 43.01
[2], 321.97 K | – | 52.02
[2], 323.15 K | – | 54.25
[2], 326.94 K | – | 62.11
[2], 331 K | – | 71.39
[2], 335.54 K | – | 83.09
[2], 338.15 K | – | 90.44
[2], 338.59 K | – | 91.73
[2], 342 K | – | 102.27
[3], 293.15 K | 1.3751 | –
[3], 298.15 K | 1.3724 | –

C=CCCCC [hex-1-ene]
Details | refractive index | vapor or sublimation pressure [kPa]
[2], 298.99 K | – | 25.68
[2], 302.85 K | – | 30.13
[2], 306.73 K | – | 35.19
[2], 310.9 K | – | 41.41
[2], 316.17 K | – | 50.46
[2], 320.92 K | – | 59.91
[2], 323.15 K | – | 64.82
[2], 325.41 K | – | 70.09
[2], 329.11 K | – | 79.46
[2], 330.99 K | – | 84.63
[2], 332.94 K | – | 90.24
[2], 333.15 K | – | 90.94
[2], 336.04 K | – | 99.73
[3], 293.15 K | 1.3881 | –
[3], 298.15 K | 1.3851 | –

c1ccsc1 [thiophene]
Details | refractive index, 293.15 K | refractive index, 298.15 K | vapor or sublimation pressure, 323.15 K [kPa] | vapor or sublimation pressure, 333.15 K [kPa] | vapor or sublimation pressure, 338.15 K [kPa]
[2] | – | – | 31.21 | 45.44 | 54.27
[3] | 1.5287 | 1.5255 | – | – | –

CCCCCC [hexane] + c1ccsc1
Details | refractive index
[1], x2 = 0 | 1.3751

Cc1ccccc1 [toluene]
Details | refractive index
[3], 298.15 K | 1.4939

c1ccsc1 [thiophene] + CCCCCC
[1]
Details | refractive index
x1 = 0.027 | 1.3774
x1 = 0.05 | 1.3794
x1 = 0.08 | 1.3822
x1 = 0.096 | 1.3836
x1 = 0.194 | 1.3933
x1 = 0.292 | 1.4039
x1 = 0.394 | 1.4161
x1 = 0.494 | 1.4296
x1 = 0.588 | 1.4438
x1 = 0.697 | 1.4624
x1 = 0.797 | 1.4814
x1 = 0.897 | 1.5034
x1 = 0.919 | 1.5084
x1 = 0.949 | 1.5158
x1 = 0.974 | 1.5219
x1 = 1 | 1.5287
